Legend:
[1] = system: arrowleaf sida; assay: Test C postemergence arrowleaf sida; type: in vivo, Sida rhombifolia; conditions: 0 to 100 scale, 0 no effect, 100 complete control
Method: (§1) Compounds evaluated in this test were formulated in a non-phytotoxic solvent mixture which included a surfactant and applied to plants that were grown for various periods of time before treatment (postemergence application). A mixture of sandy loam soil and greenhouse potting mix in a 60:40 ratio was used for the postemergence test.
(§2) Plantings of these crops and weed species were adjusted to produce plants of appropriate size for the postemergence test. All plant species were grown using normal greenhouse practices. Crop and weed species include arrowleaf sida (Sida rhombifolia), barnyardgrass (Echinochloa crus-galli), cocklebur (Xanthium strumarium), common ragweed (Ambrosia elatior), corn (Zea mays), cotton (Gossypium hirsutum), eastern black nightshade (Solanum ptycanthum), fall panicum (Panicum dichotomiflorum), field bindweed (Convolvulus arvensis), giant foxtail (Setaria faberii), hairy beggarticks (Bidens pilosa), ivyleaf morningglory (Ipomoea hederacea), johnsongrass (Sorghum halepense), ladysthumb smartweed (Polygonum persicaria), lambsquarters (Chenopodium album), large crabgrass (Digitaria sanguinalis), purple nutsedge (Cyperus rotundus), redroot pigweed (Amaranthus retroflexus), soybean (Glycine max), surinam grass (Brachiaria decumbens), velvetleaf (Abutilon theophrasti) and wild poinsettia (Euphorbia heterophylla).
(§3) Treated plants and untreated controls were maintained in a greenhouse for approximately 14, to 21 days, after which all treated plants were compared to untreated controls and visually evaluated. Plant response ratings, summarized in Table C, were based upon a 0 to 100 scale where 0 was no effect and 100 was complete control. A dash response (−) means no test result.

[2] = system: barnyardgrass; assay: Test C postemergence barnyardgrass; type: in vivo, Echinochloa crus-galli; conditions: 0 to 100 scale, 0 no effect, 100 complete control
In short: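 Soil: sandy loam/potting mix 60:40. Treatment: postemergence, solvent + surfactant formulation. Readout: visual control score 0–100 vs untreated at ~14–21 days.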

[3] = system: fall panicum; assay: Test C postemergence fall panicum; type: in vivo, Panicum dichotomiflorum; conditions: 0 to 100 scale, 0 no effect, 100 complete control
Method: as §1, §2, §3

[4] = system: common ragweed; assay: Test C postemergence common ragweed; type: in vivo, Ambrosia elatior; conditions: 0 to 100 scale, 0 no effect, 100 complete control
Method: as §1, §2, §3

[5] = system: downy brome; assay: Test E downy brome; type: in vivo, Bromus tectorum; conditions: Preemergence
[6] = system: lambsquarters; assay: Test E lambsquarters; type: in vivo, Chenopodium album; conditions: Postemergence
In short: (§4)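 Visually scored herbicidal effect relative to untreated plants, taken ~21 to 28 days post-application; compound in solvent with surfactant; postemergence sprays at the 1- to 4-leaf stage.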

[7] = system: chickweed; assay: Test E chickweed; type: in vivo, Stellaria media; conditions: Postemergence
Method: as §1, with “in the 1- to 4-leaf stage” for “grown for various periods of time before treatment”
(§5) Plantings of these crops and weed species were adjusted to produce plants of appropriate size for the postemergence test. All plant species were grown using normal greenhouse practices. Crop and weed species include annual bluegrass (Poa annua), blackgrass (Alopecurus myosuroides), black nightshade (Solanum nigra), chickweed (Stellaria media), common poppy (Papaver rhoeas), deadnettle (Lamium amplexicaule), downy brome (Bromus tectorum), field violet (Viola arvensis), galium (Galium aparine), green foxtail (Setaria viridis), Italian ryegrass (Lolium multiflorum), jointed goatgrass (Aegilops cylindrica), kochia (Kochia scoparia), lambsquarters (Chenopodium album), littleseed canarygrass (Phalaris minor), rape (Brassica napus), redroot pigweed (Amaranthus retroflexus), Russian thistle (Salsola kali), scentless chamomile (Matricaria inodora), spring barley (Hordeum vulgare), sugar beet (Beta vulgaris), sunflower (Helianthus annuus), ivyleaf speedwell (Veronica hederaefolia), spring wheat (Triticum aestivum), winter wheat (Triticum aestivum), wild buckwheat (Polygonum convolvulus), wild mustard (Sinapis arvensis), wild oat (Avena fatua), windgrass (Apera spica-venti) and winter barley (Hordeum vulgare).
(§6) Treated plants and untreated controls were maintained in a greenhouse for approximately 21 to 28 days, after which all treated plants were compared to untreated controls and visually evaluated. […] A dash response (-) means no test result.

[8] = system: wild mustard; assay: Test E wild mustard; type: in vivo, Sinapis arvensis; conditions: Postemergence
In short: as §4

[9] = system: winter barley; assay: Test E winter barley; type: in vivo, Hordeum vulgare; conditions: Postemergence
Method: as §1, with “in the 1- to 4-leaf stage” for “grown for various periods of time before treatment”
as §5, §6

[10] = system: jointed goatgrass; assay: Test E jointed goatgrass; type: in vivo, Aegilops cylindrica; conditions: Postemergence
Method: as §1, with “in the 1- to 4-leaf stage” for “grown for various periods of time before treatment”
as §5, §6

[11] = system: redroot pigweed; assay: Test E redroot pigweed; type: in vivo, Amaranthus retroflexus; conditions: Preemergence
[12] = system: Russian thistle; assay: Test E Russian thistle; type: in vivo, Salsola kali; conditions: Preemergence
[13] = system: deadnettle; assay: Test E deadnettle; type: in vivo, Lamium amplexicaule; conditions: Preemergence
[14] = system: windgrass; assay: Test E windgrass; type: in vivo, Apera spica-venti; conditions: Preemergence
[15] = system: rape; assay: Test E rape; type: in vivo, Brassica napus; conditions: Postemergence
Method: […] A mixture of sandy loam soil and greenhouse potting mix in a 60:40 ratio was used for the postemergence test.
as §5, §6

[16] = system: galium; assay: Test E galium; type: in vivo, Galium aparine; conditions: Preemergence
[17] = system: wild mustard; assay: Test E wild mustard; type: in vivo, Sinapis arvensis; conditions: Preemergence
[18] = Rate 125 g/ha, 0 to 100 scale (0 no effect, 100 complete control)
[19] = Rate 500 g/ha, 0 to 100 scale where 0 is no effect and 100 is complete control
[20] = Rate 250 g/ha, 0 to 100 scale (0 no effect, 100 complete control)
[21] = Rate 500 g/ha, 0 to 100 scale, 0 no effect, 100 complete control
[22] = Rate 250 g/ha, 0 to 100 scale where 0 is no effect and 100 is complete control

CCn1c(=O)on(C(=O)N(c2ccccc2)C(C)C)c1=O [Compound 117]
50: Plant response rating Arrowleaf sida ([1]; Rate 1120 g/ha) | Plant response rating Common ragweed ([4]; Rate 1120 g/ha)
0: Plant response rating Arrowleaf sida ([1]; Rate 140 g/ha) | Plant response rating Arrowleaf sida ([1]; Rate 280 g/ha) | Plant response rating Arrowleaf sida ([1]; Rate 560 g/ha) | Plant response rating Fall panicum ([3]; Rate 140 g/ha) | Plant response rating Common ragweed ([4]; Rate 140 g/ha) | Plant response rating Common ragweed ([4]; Rate 280 g/ha)
80: Plant response rating, Barnyardgrass ([2]; Rate 280 g/ha) | Plant response rating Fall panicum ([3]; Rate 1120 g/ha)
70: Plant response rating, Barnyardgrass ([2]; Rate 140 g/ha)
20: Plant response rating Common ragweed ([4]; Rate 560 g/ha)
90: Plant response rating, Barnyardgrass ([2]; Rate 560 g/ha) | Plant response rating, Barnyardgrass ([2]; Rate 1120 g/ha)
40: Plant response rating Fall panicum ([3]; Rate 560 g/ha)

CC(C)N(C(=O)n1oc(=O)n(C(C)C)c1=O)c1ccc(Cl)cc1 [Compound 114]
100: Plant response rating, Redroot pigweed [11, 19] | Plant response rating, Windgrass [14, 18] | Plant response rating, Windgrass [14, 19] | Plant response rating, Galium [16, 18]
90: Plant response rating, Wild mustard [17, 19]
60: Plant response rating, Downy brome ([5]; Rate 250 g/ha, 0 to 100 scale) | Plant response rating, Galium ([16]; Rate 250 g/ha, 0 to 100 scale)
15: Plant response rating, Jointed goatgra ([10]; Rate 125 g/ha, 0 to 100 scale)
0: Plant response rating, Chickweed [7, 20] | Plant response rating, Russian thistle [12, 18] | Plant response rating, Russian thistle ([12]; Rate 250 g/ha, 0 to 100 scale) | Plant response rating, Russian thistle [12, 19]
10: Plant response rating, Downy brome [5, 18] | Plant response rating, Chickweed ([7]; Rate 125 g/ha, 0 to 100 scale) | Plant response rating, Chickweed [7, 21] | Plant response rating, Barley (winter) [9, 20]
70: Plant response rating, Wild mustard [8, 21] | Plant response rating, Galium [16, 19]
75: Plant response rating, Wild mustard ([8]; Rate 125 g/ha, 0 to 100 scale)
20: Plant response rating, Barley (winter) [9, 21] | Plant response rating, Deadnettle [13, 18] | Plant response rating, Deadnettle ([13]; Rate 250 g/ha, 0 to 100 scale) | Plant response rating, Deadnettle [13, 19]
50: Plant response rating, Downy brome [5, 19] | Plant response rating, Wild mustard [8, 20] | Plant response rating, Jointed goatgra [10, 21] | Plant response rating, Redroot pigweed [11, 18] | Plant response rating, Rape [15, 20] | Plant response rating, Wild mustard [17, 18]
55: Plant response rating, Rape ([15]; Rate 125 g/ha, 0 to 100 scale) | Plant response rating, Rape [15, 21]
30: Plant response rating, Lambsquarters ([6]; Rate 125 g/ha, 0 to 100 scale) | Plant response rating, Lambsquarters [6, 20]
40: Plant response rating, Lambsquarters [6, 21] | Plant response rating, Wild mustard ([17]; Rate 250 g/ha, 0 to 100 scale)
5: Plant response rating, Barley (winter) ([9]; Rate 125 g/ha, 0 to 100 scale) | Plant response rating, Jointed goatgra [10, 20]
65: Plant response rating, Redroot pigweed ([11]; Rate 250 g/ha, 0 to 100 scale)

CC(C)N(C(=O)n1oc(=O)n(C(C)C)c1=O)c1ccc(F)cc1 [Compound 131]
60: Plant response rating Arrowleaf sida ([1]; Rate 1120 g/ha) | Plant response rating, Chickweed ([7]; Rate 62 g/ha, 0 to 100 scale) | Plant response rating, Jointed goatgra [10, 21] | Deadnettle plant response rating (0 to 100 scale) ([13]; Rate 250 g/ha) | Plant response rating, Galium [16, 18] | Plant response rating, Wild mustard [17, 18]
95: Plant response rating, Barnyardgrass ([2]; Rate 560 g/ha) | Plant response rating, Barnyardgrass ([2]; Rate 1120 g/ha) | Plant response rating, Redroot pigweed [11, 19]
40: Plant response rating Fall panicum ([3]; Rate 280 g/ha)
85: Plant response rating, Downy brome [5, 18]
100: Plant response rating, Downy brome [5, 19] | Plant response rating, Redroot pigweed [11, 18] | Redroot pigweed plant response rating (0 to 100 scale) ([11]; Rate 250 g/ha) | Plant response rating, Deadnettle [13, 19] | Plant response rating, Windgrass [14, 18] | Windgrass plant response rating (0 to 100 scale) ([14]; Rate 250 g/ha) | Plant response rating, Windgrass [14, 19] | Plant response rating, Galium [16, 19] | Wild mustard plant response rating (0 to 100 scale) ([17]; Rate 250 g/ha) | Plant response rating, Wild mustard [17, 19]
20: Chickweed plant response rating [7, 22] | Plant response rating, Barley (winter) [9, 21]
0: Plant response rating, Lambsquarters ([6]; Rate 62 g/ha, 0 to 100 scale) | Plant response rating, Lambsquarters ([6]; Rate 125 g/ha, 0 to 100 scale) | Plant response rating, Lambsquarters [6, 21] | Lambsquarters plant response rating [6, 22] | Plant response rating, Wild mustard ([8]; Rate 125 g/ha, 0 to 100 scale) | Wild mustard plant response rating [8, 22] | Plant response rating, Barley (winter) ([9]; Rate 125 g/ha, 0 to 100 scale) | Barley (winter) plant response rating [9, 22] | Plant response rating, Jointed goatgra ([10]; Rate 125 g/ha, 0 to 100 scale) | Jointed goatgra plant response rating [10, 22] | Russian thistle plant response rating (0 to 100 scale) ([12]; Rate 250 g/ha) | Plant response rating, Russian thistle [12, 19] | Plant response rating, Rape ([15]; Rate 125 g/ha, 0 to 100 scale) | Plant response rating, Rape [15, 21] | Rape plant response rating [15, 22] | Plant response rating Fall panicum ([3]; Rate 140 g/ha) | Plant response rating Common ragweed ([4]; Rate 140 g/ha) | Plant response rating Common ragweed ([4]; Rate 280 g/ha) | Plant response rating Common ragweed ([4]; Rate 560 g/ha) | Plant response rating Common ragweed ([4]; Rate 1120 g/ha)
90: Plant response rating Fall panicum ([3]; Rate 560 g/ha) | Plant response rating Fall panicum ([3]; Rate 1120 g/ha)
10: Plant response rating Arrowleaf sida ([1]; Rate 280 g/ha) | Plant response rating, Chickweed ([7]; Rate 125 g/ha, 0 to 100 scale) | Plant response rating, Russian thistle [12, 18] | Plant response rating, Rape ([15]; Rate 62 g/ha, 0 to 100 scale)
50: Plant response rating, Chickweed [7, 21] | Galium plant response rating (0 to 100 scale) ([16]; Rate 250 g/ha)
80: Downy brome plant response rating (0 to 100 scale) ([5]; Rate 250 g/ha)
30: Plant response rating Arrowleaf sida ([1]; Rate 560 g/ha) | Plant response rating, Wild mustard ([8]; Rate 62 g/ha, 0 to 100 scale) | Plant response rating, Wild mustard [8, 21] | Plant response rating, Jointed goatgra ([10]; Rate 62 g/ha, 0 to 100 scale) | Plant response rating, Deadnettle [13, 18]
5: Plant response rating, Barley (winter) ([9]; Rate 62 g/ha, 0 to 100 scale)
70: Plant response rating, Barnyardgrass ([2]; Rate 140 g/ha) | Plant response rating, Barnyardgrass ([2]; Rate 280 g/ha)

Source: patent US6737383B1, “Herbicidal oxadiazolidines” (priority 1999, dated 2004)
